Assay results reported in US8362008B2 (The University Of Edinburgh, priority 2007, dated 2013).

target: T1, human 11β-HSD1 enzyme (Homo sapiens, UniProt P28845); test: Cellular in vitro 11β-HSD1 enzyme inhibition assay (SPA, HEK293/11β-HSD1 cells); format: cell-based; settings: HEK293, less than or equal to 1000 nM (1 μM)
T1 construct: stably transfected with a construct containing the full-length gene coding for the human 11β-HSD1 enzyme; expressed in transfected cells; host or cells: HEK293 (HEK293/11β-HSD1 cells)
Procedure: Cellular In Vitro 11β-HSD1 Enzyme Inhibition Assay
Compounds were assessed by a Scintillation Proximity Assay (SPA) performed according to the following protocol:
HEK293 cells were stably transfected with a construct containing the full-length gene coding for the human 11β-HSD1 enzyme to create HEK293/11β-HSD1 cells. Cells were routinely cultured in DMEM containing 10% calf foetal serum, 1% glutamine, and 1% penicillin and streptomycin. Prior to assay, cells were plated at 2×10^4 cells/well in 96-well poly-D-Lys coated flat-bottomed microplates and incubated in 5% CO2, 95% O2 at 37° C. for 24 hours. The media in each well was removed immediately before assay.
Compounds to be tested were dissolved in DMSO at 10 mM and serially diluted into water containing 10% DMSO. Diluted compounds at a volume of 10 μL were added to wells of a 96-well V-bottomed microplate. […] This solution (100 μL/well) was transferred to the plate containing the cells. The plate was then incubated in 5% CO2, 95% O2 at 37° C. for 2 hours.
Following this incubation, 50 μL of the assay solution was transferred to each well of a 96-well scintillation microplate. A mixture consisting of anti-mouse YSi SPA beads, pre-mixed with anti-cortisol antibody in assay buffer (50 mM Tris.HCl, pH 7.0; 300 mM NaCl; 1 mM EDTA, 5% glycerol) was prepared and 50 μL added to each well of the scintillation microplate. An adhesive strip was applied to the microplate and the plate gently shaken for at least 2 hours at room temperature, and then spun briefly on a low speed centrifuge. The plate was read on a scintillation counter suitable for 96-well microplates. For the calculation of percentage inhibition, a series of wells were added to the plate that represented the assay maximum and the assay minimum: one set that contained substrate without cells (mimimum) and another set that contained substrate and cells without any compound (maximum).
The calculation of median inhibitory concentration (IC50) values for the compounds was performed using GraphPad Prism® software. Dose-response curves for each compound were plotted as fractional inhibition and data fitted to the four parameter logistic equation.

T1 sequence (P28845 whole entry): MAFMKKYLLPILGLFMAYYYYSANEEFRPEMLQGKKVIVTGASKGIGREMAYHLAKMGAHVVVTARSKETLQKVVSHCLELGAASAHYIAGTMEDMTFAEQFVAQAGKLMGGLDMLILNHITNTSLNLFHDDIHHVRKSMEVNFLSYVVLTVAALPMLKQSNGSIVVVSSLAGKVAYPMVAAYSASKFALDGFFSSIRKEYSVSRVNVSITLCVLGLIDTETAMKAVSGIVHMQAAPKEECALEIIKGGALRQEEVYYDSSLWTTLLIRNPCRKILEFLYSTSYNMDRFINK

Compound | IC50
COCC(=O)N1CCC(c2cc(C(=O)N3CCCC4CCCCC43)cs2)CC1 (centres unmarked) [CC-083] | ≤ 1000 nM
NC(=O)N1CCC(c2cc(C(=O)N3CCC[C@@H]4CCCC[C@@H]43)cs2)CC1 (relative stereo) [CC-068, cis-4-[4-(Octahydro-quinoline-1-carbonyl)-thiophen-2-yl]-piperidine-1-carboxylic acid amide] | ≤ 1000 nM
CC1(C)CCCCN(C(=O)c2csc(C3CCOCC3)c2)C1 [CC-022] | ≤ 1000 nM
COC(=O)N1CCC(c2cc(C(=O)N3CCC[C@@H]4CCCC[C@@H]43)cs2)CC1 (relative stereo) [CC-066, cis-4-[4-(Octahydro-quinoline-1-carbonyl)-thiophen-2-yl]-piperidine-1-carboxylic acid methyl ester] | ≤ 1000 nM
O=C(c1csc(C2=CCNCC2)c1)N1CCCC2CCCCC21 (centres unmarked) [CC-047] | ≤ 1000 nM
O=C(c1csc(C2CCOCC2)c1)N1CCCCCC1 [CC-004] | ≤ 1000 nM
CC1(C)CCCN(C(=O)c2csc(C3CCOCC3)c2)CC1 [CC-021] | ≤ 1000 nM
CCCCCc1cc(C(=O)N2CCCC3CCCCC32)cs1 (centres unmarked) [AA-011] | ≤ 1000 nM
O=C(c1ccno1)N1CCC(c2cc(C(=O)N3CCCC4CCCCC43)cs2)CC1 (centres unmarked) [CC-051] | ≤ 1000 nM
CC(C)C(=O)N1CCC(c2cc(C(=O)N3CCCC4CCCCC43)cs2)CC1 (centres unmarked) [CC-081] | ≤ 1000 nM
O=C(c1cc(C2CCOCC2)sc1Cl)N1CCCC2CCCCC21 (centres unmarked) [CC-030] | ≤ 1000 nM
CCc1cc(C(=O)N2CCCC3CCCCC32)cs1 (centres unmarked) [AA-009] | ≤ 1000 nM
O=C(c1csc(CC(F)(F)F)c1)N1CCC[C@@H]2CCCC[C@@H]21 (relative stereo) [AA-012, cis-(Octahydro-quinolin-1-yl)-[5-(2,2,2-trifluoro-ethyl)-thiophen-3-yl]-methanone] | ≤ 1000 nM
O=C(c1csc(C2CCNCC2)c1)N1CCCC2CCCCC21 (centres unmarked) [CC-040] | ≤ 1000 nM
O=C(CO)N1CCC(c2cc(C(=O)N3CCCC4CCCCC43)cs2)CC1 (centres unmarked) [CC-054] | ≤ 1000 nM
O=C(c1csc(C2CCNCC2)c1)N1CCCC2CCCCC21 (single isomer, unassigned) [CC-044, trans-(Octahydro-quinolin-1-yl)-(5-piperidin-4-yl-thiophen-3-yl)-methanone] | ≤ 1000 nM
CC1(C)CCCN(C(=O)c2cc(C3CCOCC3)sc2Cl)C1 [CC-005] | ≤ 1000 nM
CC1(C)CC2CC(C)(CN2C(=O)c2csc(C3CCNCC3)c2)C1 (single isomer, unassigned) [CC-075, (5-Piperidin-4-yl-thiophen-3-yl)-(1,3,3-trimethyl-6-aza-bicyclo[3.2.1]oct-6-yl)-methanone] | ≤ 1000 nM
CC(=O)N1CCC(c2cc(C(=O)N3CCCC4CCCCC43)cs2)CC1 (centres unmarked) | ≤ 1000 nM
CCc1cc(C(=O)N2CCCC3CCCCC32)c(Cl)s1 (centres unmarked) [AA-013] | ≤ 1000 nM
CCc1cc(C(=O)N2CC3CC4CC(C3)CC2C4)cs1 [AA-015] | ≤ 1000 nM
CC1(C)CC2CC(C)(CN2C(=O)c2csc(C3CCCNC3)c2)C1 (centres unmarked) [CC-073] | ≤ 1000 nM

Results, then the molecule that gave them:

IC50 | Compound
≤ 1000 nM | O=C(CCc1c[nH]cn1)N1CCC(c2cc(C(=O)N3CCCC4CCCCC43)cs2)CC1 (centres unmarked) [CC-151]
≤ 1000 nM | O=C(c1csc(C2CCS(=O)(=O)CC2)c1)N1CCC[C@@H]2CCCC[C@@H]21 (racemic) [CC-138, cis-[5-(1,1-Dioxo-hexahydro-thiopyran-4-yl)-thiophen-3-yl]-(octahydro-quinolin-1-yl)methanone]
≤ 1000 nM | CNC(=O)N1CCC(c2cc(C(=O)N3CCCCC3c3ccccc3)cs2)CC1 (centres unmarked) [CC-132]
≤ 1000 nM | O=C(N1CCCC1)N1CCC(c2cc(C(=O)N3CCCC4CCCCC43)cs2)CC1 (centres unmarked) [CC-116]
≤ 1000 nM | CC1(C)CCCN(C(=O)c2csc(C3CCCCC3)c2)C1 [DD-001]
≤ 1000 nM | O=C(c1csc(C2=CCNCC2)c1)N1CCCC(F)(F)CC1 [CC-126]
≤ 1000 nM | CC(C)(C(=O)N1CCCC1)N1CCC(c2cc(C(=O)N3CCCC4CCCCC43)cs2)CC1 (centres unmarked) [CC-170]
≤ 1000 nM | O=C(CO)N1CC=C(c2cc(C(=O)N3CCCC4CCCCC43)cs2)CC1 (centres unmarked) [CC-090]
≤ 1000 nM | O=C(NCc1ccccn1)N1CCC(c2cc(C(=O)N3CCCC4CCCCC43)cs2)CC1 (centres unmarked) [CC-166]
≤ 1000 nM | O=C(c1csc(C2CCNCC2)c1)N1CCCCC1c1ccccc1 (single isomer, unassigned) [CC-130, cis-(2-Phenyl-piperidin-1-yl)-(5-piperidin-4-yl-thiophen-3-yl) methanone]
≤ 1000 nM | O=C(Cc1ccccn1)N1CCC(c2cc(C(=O)N3CCCC4CCCCC43)cs2)CC1 (centres unmarked) [CC-133]
≤ 1000 nM | N#CC1(c2cc(C(=O)N3CCC[C@@H]4CCCC[C@@H]43)cs2)CCOCC1 (relative stereo) [CC-127, cis-4-[4-(Octahydro-quinoline-1-carbonyl)-thiophen-2-yl]-tetrahydro-pyran-4-carbonitrile]
≤ 1000 nM | CC1(C)CCCN(C(=O)c2csc(C3CCN(C(=O)CO)CC3)c2)CC1 [CC-113]
≤ 1000 nM | O=C(NCCO)N1CCC(c2cc(C(=O)N3CCC[C@@H]4CCCC[C@@H]43)cs2)CC1 (racemic) [CC-157, cis-4-[4-(Octahydro-quinoline-1-carbonyl)-thiophen-2-yl]-piperidine-1-carboxylic acid(2-hydroxy-ethyl)-amide]

same assay, conditions: HEK293, more than 1000 nM (1.0 μM) and less than or equal to 30 μM

Compound | IC50
O=C(c1csc(COc2ccc(-n3cncn3)cc2)c1)N1CCCCC1 [BB-004] | 1000 to 30000 nM
O=C(c1csc(C2CCNCC2)c1)N1CCCC1c1ccccc1 (centres unmarked) [CC-020] | 1000 to 30000 nM
O=C(c1csc(COc2ccc(-n3ccnc3)cc2)c1)N1CCCCC1 [BB-003] | 1000 to 30000 nM
CCc1cc(C(=O)N2CCCCC2)c(C#N)s1 [AA-003, 5-Ethyl-3-(piperidine-1-carbonyl)-thiophene-2-carbonitrile] | 1000 to 30000 nM
COCCCN1CCC(c2cc(C(=O)N3CCCC4CCCCC43)cs2)CC1 (centres unmarked) [CC-089] | 1000 to 30000 nM
CC1CCCCN1C(=O)c1csc(C2CCOCC2)c1 (centres unmarked) [CC-002] | 1000 to 30000 nM
CNCC(=O)N1CCC(c2cc(C(=O)N3CCCC4CCCCC43)cs2)CC1 (centres unmarked) [CC-056] | 1000 to 30000 nM
CC1(C)CCCCN(C(=O)c2csc(C3CCNCC3)c2)C1 [CC-024] | 1000 to 30000 nM
C[C@@H]1CN(C(=O)c2csc(C3CCNCC3)c2)C[C@H](C)O1 [CC-019] | 1000 to 30000 nM
CC1(C)CC2CC(C)(CN2C(=O)c2csc(C3CCNCC3)c2)C1 (single isomer, unassigned) [CC-076, (5-Piperidin-4-yl-thiophen-3-yl)-(1,3,3-trimethyl-6-aza-bicyclo[3.2.1]oct-6-yl)-methanone] | 1000 to 30000 nM
O=C(c1csc(C2CCNCC2)c1)N1CCCCC1c1ccccn1 (centres unmarked) [CC-012] | 1000 to 30000 nM
O=C(c1csc(C2CCNCC2)c1)N1CCCC(c2ccccc2)C1 (centres unmarked) [CC-018] | 1000 to 30000 nM
COCCCC(=O)N1CCC(c2cc(C(=O)N3CCCC4CCCCC43)cs2)CC1 (centres unmarked) [CC-085] | 1000 to 30000 nM
CN1CCC(c2cc(C(=O)N3CCC[C@@H]4CCCC[C@@H]43)cs2)CC1 (relative stereo) [CC-038, cis-[5-(1-Methyl-piperidin-4-yl)-thiophen-3-yl]-(octahydro-quinolin-1-yl)-methanone] | 1000 to 30000 nM

Continued, values first:

IC50 | Compound
1000 to 30000 nM | O=C(CO)N1CCC(c2cc(C(=O)N3CCCCC3c3ccccc3)cs2)CC1 (centres unmarked) [CC-102]
1000 to 30000 nM | O=C(c1csc(C2CCCCC2)c1)N1CCCC2(CCCCC2)C1 [DD-006]
1000 to 30000 nM | CC1(C)CCCN(C(=O)c2csc(C3CCN(C(=O)c4ccno4)CC3)c2)CC1 [CC-095]
1000 to 30000 nM | O=C(c1csc(C2CCN(c3nc4ccccc4o3)CC2)c1)N1CCCC2CCCCC21 (centres unmarked) [CC-129]
1000 to 30000 nM | O=C(c1csc(C2CCCCC2)c1)N1CCCC2CCCCC21 (centres unmarked) [DD-003]
1000 to 30000 nM | O=C(c1csc(C2CCNCC2)c1)N1CCC(F)(F)C2CCCCC21 (centres unmarked) [CC-131]
1000 to 30000 nM | O=C1CCCN1CCCN1CCC(c2cc(C(=O)N3CCCC4CCCCC43)cs2)CC1 (stereo not drawn) [CC-156, cis-{1-(3-{4-[4-(Octahydro-quinoline-1-carbonyl)-thiophen-2-yl]-piperidin-1-yl}-propyl)-pyrrolidin-2-one]
1000 to 30000 nM | O=C(c1csc(C2CCN(CC(O)CO)CC2)c1)N1CCCC2CCCCC21 (centres unmarked) [CC-153]
1000 to 30000 nM | CC1(C)CCCN(C(=O)c2csc(C3CCN(S(C)(=O)=O)CC3)c2)CC1 [CC-096]
1000 to 30000 nM | O=C(c1csc(C2CCNCC2)c1)N1CCCCCC1c1ccccc1 (centres unmarked) [CC-107]
1000 to 30000 nM | O=C(c1csc(C2CCNCC2)c1)N1CCCCC1c1ccc(F)cc1 (centres unmarked) [CC-112]
1000 to 30000 nM | O=C(c1csc(C2CCN(CC(F)(F)F)CC2)c1)N1CCC[C@@H]2CCCC[C@@H]21 (relative stereo) [CC-172, cis-(Octahydro-quinolin-1-yl)-{5-[1-(2,2,2-trifluoro-ethyl)-piperidin-4-yl]-thiophen-3-yl}-methanone]
